Source: patent US20210338846A1, “COMPETITIVE PROSTATE-SPECIFIC MEMBRANE ANTIGEN (PSMA) BINDING AGENTS FOR REDUCTION OF NON-TARGET ORGAN UPTAKE OF RADIOLABELED PSMA INHIBITORS FOR PSMA POSITIVE TUMOR IMAGING AND RADIOPHARMACEUTICAL THERAPY” (The Johns Hopkins University, priority 2018, published 2021)
Where two headings read alike, the source gives them in different places.

Test system: PSMA+ PC-3 PiP and PSMA− PC-3 flu tumors
[1] = 1 h, co-injection 0.5 nmole YC-I-27
[2] = 2 hours (footnote a), co-injection 0.5 nmole YC-I-27
[3] = 24 h, co-injection 0.5 nmole YC-I-27
[4] = 4 h, co-injection 0.5 nmole YC-I-27

SMILES: O=C(O)CC[C@H](NC(=O)N[C@@H](CCC(=O)NCCc1ccc([125I])cc1)C(=O)O)C(=O)O [[^125I]HS-549]
- Biodistribution: Blood (1 h, No CI): 5.9 ± 1.0 % injected dose/gram
- Biodistribution: Flu tumor (1 h, No CI): 2.2 ± 0.5 % injected dose/gram
- Biodistribution: PiP tumor (1 h, No CI): 78 ± 19 % injected dose/gram
- Biodistribution: kidneys (1 h, No CI): 106 ± 19 % injected dose/gram
- Biodistribution: spleen (1 h, No CI): 6.8 ± 3.4 % injected dose/gram
- Biodistribution: stomach (1 h, No CI): 0.9 ± 0.2 % injected dose/gram
- Biodistribution: thyroid (1 h, No CI): 1.2 ± 0.4 % injected dose/gram
- Biodistribution: Blood [1]: 2.6 ± 0.6 % injected dose/gram
- Biodistribution: Flu tumor [1]: 1.0 ± 0.45 % injected dose/gram
- Biodistribution: Lacrimal gland [1]: 1.1 ± 0.4 % injected dose/gram
- Biodistribution: PiP tumor [1]: 31 ± 4.2 % injected dose/gram
- Biodistribution: Salivary gland [1]: 1.0 ± 0.2 % injected dose/gram
- Biodistribution: kidneys [1]: 12.1 ± 1.9 % injected dose/gram
- Biodistribution: spleen [1]: 0.8 ± 0.2 % injected dose/gram
- Biodistribution: stomach [1]: 0.8 ± 0.3 % injected dose/gram
- Biodistribution: thyroid [1]: 5.6 ± 9.2 % injected dose/gram
- Biodistribution: Blood [2]: 0.8 ± 0.1 % injected dose/gram
- Biodistribution: Flu tumor [2]: 0.3 ± 0.15 % injected dose/gram
- Biodistribution: Lacrimal gland [2]: 0.5 ± 0.3 % injected dose/gram
- Biodistribution: PiP tumor [2]: 39 ± 4 % injected dose/gram
- Biodistribution: Salivary gland [2]: 0.4 ± 0.2 % injected dose/gram
- Biodistribution: kidneys [2]: 2.8 ± 0.8 % injected dose/gram
- Biodistribution: spleen [2]: 0.4 ± 0.1 % injected dose/gram
- Biodistribution: stomach [2]: 0.3 ± 0.1 % injected dose/gram
- Biodistribution: thyroid [2]: 0.3 ± 0.1 % injected dose/gram
- Biodistribution: Blood (4 h, No CI): 2.9 ± 0.3 % injected dose/gram
- Biodistribution: Flu tumor (4 h, No CI): 1.5 ± 0.3 % injected dose/gram
- Biodistribution: PiP tumor (4 h, No CI): 75 ± 13 % injected dose/gram
- Biodistribution: kidneys (4 h, No CI): 97 ± 39 % injected dose/gram
- Biodistribution: spleen (4 h, No CI): 2.7 ± 0.8 % injected dose/gram
- Biodistribution: stomach (4 h, No CI): 0.5 ± 0.2 % injected dose/gram
- Biodistribution: thyroid (4 h, No CI): 0.7 ± 0.3 % injected dose/gram
- Biodistribution: Blood (21 hours (footnote b), No CI): 1.4 ± 0.4 % injected dose/gram
- Biodistribution: Flu tumor (21 hours (footnote b), No CI): 0.4 ± 0.2 % injected dose/gram
- Biodistribution: PiP tumor (21 hours (footnote b), No CI): 23 ± 2 % injected dose/gram
- Biodistribution: kidneys (21 hours (footnote b), No CI): 3.1 ± 1.6 % injected dose/gram
- Biodistribution: spleen (21 hours (footnote b), No CI): 0.3 ± 0.1 % injected dose/gram
- Biodistribution: stomach (21 hours (footnote b), No CI): 0.1 ± 0.04 % injected dose/gram
- Biodistribution: thyroid (21 hours (footnote b), No CI): 0.4 ± 0.05 % injected dose/gram
- Biodistribution: Blood [3]: 0.6 ± 0.3 % injected dose/gram
- Biodistribution: Flu tumor [3]: 0.2 ± 0.2 % injected dose/gram
- Biodistribution: Lacrimal gland [3]: 0.2 ± 0.1 % injected dose/gram
- Biodistribution: PiP tumor [3]: 35 ± 5 % injected dose/gram
- Biodistribution: Salivary gland [3]: 0.2 ± 0.1 % injected dose/gram
- Biodistribution: kidneys [3]: 0.7 ± 0.3 % injected dose/gram
- Biodistribution: spleen [3]: 0.1 ± 0.07 % injected dose/gram
- Biodistribution: stomach [3]: 0.1 ± 0.05 % injected dose/gram
- Biodistribution: thyroid [3]: 0.5 ± 0.8 % injected dose/gram

SMILES: O=C(O)CC[C@H](NC(=O)N[C@@H](CCCCN(Cc1ccc([125I])cc1)C(=O)CCCCNC(=O)CN1CCN(CC(=O)O)CCN(CC(=O)O)CCN(CC(=O)O)CC1)C(=O)O)C(=O)O [[^125I]VK-02-90]
- Biodistribution: Blood (1 h, No CI): 1.1 ± 0.3 % injected dose/gram
- Biodistribution: Flu tumor (1 h, No CI): 1.4 ± 0.6 % injected dose/gram
- Biodistribution: Lacrimal gland (1 h, No CI): 17.4 ± 6.0 % injected dose/gram
- Biodistribution: PiP tumor (1 h, No CI): 58 ± 14 % injected dose/gram
- Biodistribution: Salivary gland (1 h, No CI): 5.1 ± 3.4 % injected dose/gram
- Biodistribution: kidneys (1 h, No CI): 194 ± 25 % injected dose/gram
- Biodistribution: spleen (1 h, No CI): 40 ± 16 % injected dose/gram
- Biodistribution: stomach (1 h, No CI): 1.1 ± 0.3 % injected dose/gram
- Biodistribution: Blood [1]: 0.45 ± 0.06 % injected dose/gram
- Biodistribution: Flu tumor [1]: 0.37 ± 0.05 % injected dose/gram
- Biodistribution: Lacrimal gland [1]: 0.75 ± 0.33 % injected dose/gram
- Biodistribution: PiP tumor [1]: 35 ± 10 % injected dose/gram
- Biodistribution: Salivary gland [1]: 0.46 ± 0.06 % injected dose/gram
- Biodistribution: kidneys [1]: 10.0 ± 1.1 % injected dose/gram
- Biodistribution: spleen [1]: 0.8 ± 0.14 % injected dose/gram
- Biodistribution: stomach [1]: 0.33 ± 0.07 % injected dose/gram
- Biodistribution: thyroid [1]: 0.5 ± 0.3 % injected dose/gram
- Biodistribution: Blood (4 h, No CI): 0.2 ± 0.03 % injected dose/gram
- Biodistribution: Flu tumor (4 h, No CI): 0.3 ± 0.1 % injected dose/gram
- Biodistribution: Lacrimal gland (4 h, No CI): 1.9 ± 0.5 % injected dose/gram
- Biodistribution: PiP tumor (4 h, No CI): 38 ± 13 % injected dose/gram
- Biodistribution: Salivary gland (4 h, No CI): 0.7 ± 0.2 % injected dose/gram
- Biodistribution: kidneys (4 h, No CI): 162 ± 3.5 % injected dose/gram
- Biodistribution: spleen (4 h, No CI): 4.7 ± 1.2 % injected dose/gram
- Biodistribution: stomach (4 h, No CI): 0.4 ± 0.2 % injected dose/gram
- Biodistribution: Blood [4]: 0.02 ± 0.004 % injected dose/gram
- Biodistribution: Flu tumor [4]: 0.7 ± 0.01 % injected dose/gram
- Biodistribution: Lacrimal gland [4]: 0.14 ± 0.08 % injected dose/gram
- Biodistribution: PiP tumor [4]: 35 ± 5.0 % injected dose/gram
- Biodistribution: Salivary gland [4]: 0.08 ± 0.04 % injected dose/gram
- Biodistribution: kidneys [4]: 2.2 ± 0.3 % injected dose/gram
- Biodistribution: spleen [4]: 0.2 ± 0.1 % injected dose/gram
- Biodistribution: stomach [4]: 0.2 ± 0.07 % injected dose/gram
- Biodistribution: thyroid [4]: 0.14 ± 0.1 % injected dose/gram
- Biodistribution: Blood (24 h, No CI): 0.02 ± 0.01 % injected dose/gram
- Biodistribution: Flu tumor (24 h, No CI): 0.04 ± 0.02 % injected dose/gram
- Biodistribution: Lacrimal gland (24 h, No CI): 0.5 ± 0.2 % injected dose/gram
- Biodistribution: PiP tumor (24 h, No CI): 51 ± 7 % injected dose/gram
- Biodistribution: Salivary gland (24 h, No CI): 0.3 ± 0.3 % injected dose/gram
- Biodistribution: kidneys (24 h, No CI): 31 ± 14 % injected dose/gram
- Biodistribution: spleen (24 h, No CI): 0.7 ± 0.4 % injected dose/gram
- Biodistribution: stomach (24 h, No CI): 0.05 ± 0.03 % injected dose/gram
- Biodistribution: Blood [3]: 0.001 ± 0.001 % injected dose/gram
- Biodistribution: Flu tumor [3]: 0.02 ± 0.01 % injected dose/gram
- Biodistribution: Lacrimal gland [3]: 0.02 ± 0.04 % injected dose/gram
- Biodistribution: PiP tumor [3]: 33 ± 6 % injected dose/gram
- Biodistribution: Salivary gland [3]: 0.02 ± 0.01 % injected dose/gram
- Biodistribution: kidneys [3]: 0.3 ± 0.03 % injected dose/gram
- Biodistribution: spleen [3]: 0.05 ± 0.04 % injected dose/gram
- Biodistribution: stomach [3]: 0.06 ± 0.02 % injected dose/gram
- Biodistribution: thyroid [3]: 0.04 ± 0.08 % injected dose/gram
- PSMA+ tumor uptake (in words) (Tables 1, 2, and 3): high PSMA+ tumor uptake
- kidney uptake (in words) (Tables 1, 2, and 3): high initial kidney uptake which clears over time
